As a reminder, the EC50 is the midpoint of the concentration-response curve.

Data on 27 compounds can be found in patent US12686690B2, “Macrocyclic urea orexin receptor agonists” (Merck Sharp & Dohme LLC, priority 2020, dated 2026).

This assay deals with T1, hOX2R (Homo sapiens, UniProt O43614).
T1 construct: expressed in transfected cells; host or cells: CHO cells (G418 selection)
T1 sequence (O43614 1-444): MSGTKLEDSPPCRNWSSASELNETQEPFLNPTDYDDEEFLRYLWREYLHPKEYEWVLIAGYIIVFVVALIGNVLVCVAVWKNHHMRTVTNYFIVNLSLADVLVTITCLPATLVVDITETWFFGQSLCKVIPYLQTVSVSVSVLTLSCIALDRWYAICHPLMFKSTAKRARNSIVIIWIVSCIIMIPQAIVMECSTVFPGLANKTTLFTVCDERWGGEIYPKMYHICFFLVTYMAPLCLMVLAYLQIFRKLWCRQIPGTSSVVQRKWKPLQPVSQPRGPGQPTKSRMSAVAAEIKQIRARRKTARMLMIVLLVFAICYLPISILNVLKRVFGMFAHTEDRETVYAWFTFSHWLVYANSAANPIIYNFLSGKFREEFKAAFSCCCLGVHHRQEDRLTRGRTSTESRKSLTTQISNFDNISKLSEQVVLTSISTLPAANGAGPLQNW
Kind of assay: hOX2R IPone assay (orexin receptor agonism). Format: cell-based. The conditions noted are these: IPone readout; for hOX2R_Ipone max %act: maximal activation; for EC50: orexin receptor agonist, read-out: hOX2R_IPone EC50.

SMILES strings stand for the structures.

On to `CCC(CC)CC1CCCCCOc2nc(cn3ccnc23)-c2cc(ncc2OC)[C@@H](C)N(CC)C(=O)N1` (single isomer, unassigned) [Example 64B], for which the hOX2R_Ipone max %act stood at 99.8% and the EC50 came out at 1.6 nM.

As to `CCN1C(=O)N[C@@H](CCC(F)(F)F)CCCCCOc2nc(nn3ccnc23)-c2cc(cnc2OC)[C@H]1C` [Example 47, (3R,7R,E)-4-ethyl-22-methoxy-3-methyl-7-(3,3,3-trifluoropropyl)-13-oxa-4,6-diaza-1(2,4)-imidazo[2,1-f][1,2,4]triazina-2(3,5)-pyridinacyclotridecaphan-5-one], the hOX2R_Ipone max %act came out at 100.5% and the concentration giving a half-maximal response (EC50) was determined as 4.3 nM.

For `CCN1Cc2cnc(OC)c(c2)-c2cn3ccnc3c(n2)OCCCCC[C@H](CCC(F)(F)F)NC1=O` [Example 51], the hOX2R_Ipone max %act was determined as 99.5% and the EC50 stood at 0.6 nM.

For the compound `CCN1C(=O)NCCCOCCOc2nc(cn3ccnc23)-c2cc(ncc2OC)[C@H]1C` [Example 7, (12R)-13-ethyl-8-methoxy-12-methyl-12,13,15,16,17,18,20,21-octahydro-14H-6,23-(azeno)-11,7-(metheno)imidazo[2,1-f][1,4,7,13,16,18]dioxatetra-azacyclohenicosin-14-one], the hOX2R_Ipone max %act worked out at 100.6% and the EC50 was found to be 4.6 nM.

Take `CCN1C(=O)NC(CCC(F)F)CCCCCOc2nc(cn3ccnc23)-c2cc(ncc2OC)[C@H]1C(F)(F)F` (stereo partly drawn) [Example 208, (3S,E)-7-(3,3-difluoropropyl)-4-ethyl-25-methoxy-3-(trifluoromethyl)-13-oxa-4,6-diaza-1(6,8)-imidazo[1,2-a]pyrazina-2(4,2)-pyridinacyclotridecaphan-5-one]: the hOX2R_Ipone max %act is recorded as 101.8% and the EC50 stood at 0.29 nM.

For `CCN1C(=O)NCc2nc(no2)CCOc2nc(cn3ccnc23)-c2cccc(c2)[C@H]1C` [Example 23, (R,27E,64Z)-10-ethyl-11-methyl-3-oxa-8,10-diaza-6(3,5)-oxadiazola-2(6,8)-imidazo[1,2-a]pyrazina-1(1,3)-benzenacyclo-undecaphan-9-one], the hOX2R_Ipone max %act is 64.2% and the EC50 was determined as 1010 nM.

For the compound `CCN1C(=O)NC(CCC(F)(F)F)COCCCOc2nc(cn3ccnc23)-c2cc(ncc2OC)[C@H]1C` (single isomer, unassigned) [Example 21A], the hOX2R_Ipone max %act was 100.4% and the EC50 is 19.6 nM.

For `CCN1C(=O)NC(C)CCCCCOc2nc(cn3ccnc23)-c2cc(ncc2OC)[C@H]1C` (single isomer, unassigned) [Example 9B], the hOX2R_Ipone max %act came to 100.9% and the EC50 was 6 nM.

Take `CCN1C(=O)NCCc2nc(no2)COc2nc(cn3ccnc23)-c2cccc(c2)[C@H]1C` [Example 24, (R,27E,54Z)-10-ethyl-11-methyl-3-oxa-8,10-diaza-5(3,5)-oxadiazola-2(6,8)-imidazo[1,2-a]pyrazina-1(1,3)-benzenacyclo-undecaphan-9-one]: the hOX2R_Ipone max %act was determined as 61.5% and the EC50 turned out to be 814 nM.

With `CCN1C(=O)N[C@@H](CCC(F)(F)F)CCCCCOc2nc(cn3ccnc23)-c2ccnc(c2)[C@H]1C` [Example 110, (3R,7R,E)-4-ethyl-3-methyl-7-(3,3,3-trifluoropropyl)-13-oxa-4,6-diaza-1(6,8)-imidazo[1,2-a]pyrazina-2(4,2)-pyridinacyclotridecaphan-5-one], the hOX2R_Ipone max %act is recorded as 100.2% and the EC50 came to 1.3 nM.

Regarding `CCN1C(=O)N[C@@H](CCC(C)(F)F)CCCCCOc2nc(cn3ccnc23)-c2cc(ncc2OC)[C@H]1C` [Example 83, (12R,16R)-16-(3,3-difluorobutyl)-13-ethyl-8-methoxy-12-methyl-12,13,16,17, 18,19,20,21-octa-hydro-6,23-(azeno)-11,7-(metheno) imidazo[2,1-c][1,4,9,13,15]oxatetraazacy-clohenicosin-14(15H)-one], the hOX2R_Ipone max %act came to 100.7% and the EC50 turned out to be 1 nM.

With `CCN1C(=O)NCCCC(C)(C)COc2nc(cn3ccnc23)-c2cccc(c2)[C@H]1C` [Example 13, (12R)-13-ethyl-12,19,19-tri-methyl-12,13,15, 16,17,18,19,20-octahydro-14H-6,22-(azeno)-11,7-(metheno) imidazo[2,1-c][1,4,13,15]oxa-triazacycloicosin-14-one], the hOX2R_Ipone max %act is 98.2% and the concentration giving a half-maximal response (EC50) worked out at 634 nM.

Turning to `CCN1C(=O)NC(CC2CC(F)(F)C2)CCCCCOc2nc(cn3ccnc23)-c2cc(ncc2OC)[C@H]1C` (single isomer, unassigned) [Example 69A], the hOX2R_Ipone max %act is on record as 99.7% and the EC50 worked out at 6.6 nM.

For the compound `CCC1CCCCCOc2nc(cn3ccnc23)-c2cc(ncc2OC)[C@@H](C)N(CC)C(=O)N1` (single isomer, unassigned) [Example 52B], the hOX2R_Ipone max %act is recorded as 99.5% and the concentration for a half-maximal effect (EC50) turned out to be 4.9 nM.

On to `CCOCC1CCCCCOc2nc(cn3ccnc23)-c2cc(ncc2OC)[C@@H](C)N(CC)C(=O)N1` (single isomer, unassigned) [Example 62B], for which the hOX2R_Ipone max %act was found to be 100.9% and the EC50 turned out to be 1.4 nM.

For the compound `CCN1C(=O)NC(CCC(F)(F)F)C(C)/C=C\COc2nc(cn3ccnc23)-c2cccc(c2)[C@H]1C` (single isomer, unassigned) [Example 41B], the hOX2R_Ipone max %act is 100.4% and the EC50 amounted to 21.3 nM.

Regarding `CCN1C(=O)NC(CCC(F)(F)F)CCCCCOc2nc(cn3ccnc23)-c2cc(ncc2Cl)[C@H]1C` (stereo partly drawn) [Example 198, (3R,E)-25-chloro-4-ethyl-3-methyl-7-(3,3,3-trifluoropropyl)-13-oxa-4,6-diaza-1(6,8)-imidazo[1,2-a]pyrazina-2(4,2)-pyridinacyclotri-decaphan-5-one], the hOX2R_Ipone max %act turned out to be 103.1% and the EC50 stood at 0.58 nM.

On to `CCCC1CCCCCOc2nc(cn3ccnc23)-c2cc(ncc2OC)[C@@H](C)N(CC)C(=O)N1` (single isomer, unassigned) [Example 54B], for which the hOX2R_Ipone max %act is on record as 100.7% and the EC50 was 1 nM.

On to `CCN1Cc2ccc(OC)c(c2)-c2cn3ccnc3c(n2)OCCCC[C@H](CCC(F)(F)F)NC1=O` [Example 44, (16R)-13-ethyl-8-methoxy-16-(3,3,3-trifluoropropyl)-12,13,15,16,17,18,19,20-octahydro-14H-6,22-(azeno)-11,7-(metheno)imidazo[2,1-c][1,4,13,15]oxatriaza-cycloicosin-14-one], for which the hOX2R_Ipone max %act stood at 100.4% and the EC50 was determined as 1 nM.

Take `CCN1C(=O)N[C@@H](CCC(F)(F)F)CCCCCOc2nc(cn3ncnc23)-c2ccnc(c2)[C@H]1C` [Example 142, (3R,7R,E)-4-ethyl-3-methyl-7-(3,3,3-trifluoropropyl)-13-oxa-4,6-diaza-1(6,8)-[1,2,4]triazolo[1,5-a]pyrazina-2(4,2)-pyridinacyclotridecaphan-5-one]: the hOX2R_Ipone max %act was determined as 100.3% and the EC50 came to 4.71 nM.

As to `CCN1C(=O)NC(COCC(F)(F)F)CCCCCOc2nc(cn3ccnc23)-c2cc(ncc2OC)[C@H]1C` (stereo partly drawn) [Example 188, (3R,E)-4-ethyl-25-methoxy-3-methyl-7-((2,2,2-trifluoroethoxy)methyl)-13-oxa-4,6-diaza-1(6,8)-imidazo [1,2-a]pyrazina-2(4,2)-pyridinacyclotridecaphan-5-one], the hOX2R_Ipone max %act is given as 100.6% and the half-maximal effective concentration (EC50) was 0.74 nM.

For `CCN1C(=O)NC(C2CCOC2)CCCCCOc2nc(cn3ccnc23)-c2cc(ncc2OC)[C@H]1C` (stereo partly drawn) [Example 189, (3R,E)-4-ethyl-25-methoxy-3-methyl-7-(tetrahydrofuran-3-yl)-13-oxa-4,6-diaza-1(6,8)-imidazo[1,2-a]pyrazina-2(4,2)-pyridinacyclotridecaphan-5-one], the hOX2R_Ipone max %act came out at 99.85% and the concentration giving a half-maximal response (EC50) worked out at 0.69 nM.

On to `CCN1C(=O)NC(CCC(C)(F)F)CCCCCOc2nc(nn3ccnc23)-c2cc(ncc2OC)[C@H]1C` (stereo partly drawn) [Example 200, (3R,E)-7-(3,3-difluorobutyl)-4-ethyl-25-methoxy-3-methyl-13-oxa-4,6-diaza-1(2,4)-imidazo[2,1-f][1,2,4]triazina-2(4,2)-pyridinacyclo-tridecaphan-5-one], for which the hOX2R_Ipone max %act was 99.5% and the EC50 stood at 0.53 nM.

For the compound `CCOCC1CCCCCOc2nc(cn3ccnc23)-c2cc(ncc2OC)[C@@H](C)N(CC)C(=O)N1` (single isomer, unassigned) [Example 62A], the hOX2R_Ipone max %act worked out at 99.9% and the EC50 was determined as 39.2 nM.

Take `CCN1C(=O)NC(CCC(C)F)CCCCCOc2nc(cn3ccnc23)-c2cc(ncc2OC)[C@H]1C` (single isomer, unassigned) [Example 72A]: the hOX2R_Ipone max %act worked out at 99.5% and the concentration for a half-maximal effect (EC50) was found to be 5.6 nM.

Consider `CCN1C(=O)N[C@@H](CCS(C)(=O)=O)CCCCCOc2nc(cn3ncnc23)-c2cc(ncc2OC)[C@H]1C` [Example 154, (3R,7R,E)-4-ethyl-25-methoxy-3-methyl-7-(2-(methylsulfonyl)ethyl)-13-oxa-4,6-diaza-1(6,8)-[1,2,4]triazolo[1,5-a]pyrazina-2(4,2)-pyridinacyclotridecaphan-5-one], for which the hOX2R_Ipone max %act was 106.1% and the EC50 is 1.05 nM.

On to `CCN1C(=O)NC(CC(C)C)CCCCCOc2nc(cn3ccnc23)-c2cc(ncc2OC)[C@H]1C` (single isomer, unassigned) [Example 53B], for which the hOX2R_Ipone max %act is 102.3% and the EC50 was 0.9 nM.
